Assay results from patent US9834543B2, “Indazoles and use thereof” (Purdue Pharma L.P., priority 2013, dated 2017).
Where two headings read alike, the source gives them in different places.

How the values were obtained:
[1] = biological target: human Nav1.7 (Homo sapiens (Human), UniProt Q15858); assay: FLIPR or FLIPR TETRA sodium dye assay with KCl and test article pre-incubation (sodium mobilization); format: cell-based
[2] = biological target: hNav1.7 (Homo sapiens (Human), UniProt Q15858); assay: EP (electrophysiology) assay, whole-cell patch clamp in hNav1.7 expressing HEK-293 cells; format: cell-based; conditions: affinity for the inactivated state of the channel; hNav1.7 HEK-293; read-out: Nav1.7 Activity (μM) EP assay Ki
Sequence of hNav1.7 (Q15858 other isoform, or with tags, fused parts or gaps): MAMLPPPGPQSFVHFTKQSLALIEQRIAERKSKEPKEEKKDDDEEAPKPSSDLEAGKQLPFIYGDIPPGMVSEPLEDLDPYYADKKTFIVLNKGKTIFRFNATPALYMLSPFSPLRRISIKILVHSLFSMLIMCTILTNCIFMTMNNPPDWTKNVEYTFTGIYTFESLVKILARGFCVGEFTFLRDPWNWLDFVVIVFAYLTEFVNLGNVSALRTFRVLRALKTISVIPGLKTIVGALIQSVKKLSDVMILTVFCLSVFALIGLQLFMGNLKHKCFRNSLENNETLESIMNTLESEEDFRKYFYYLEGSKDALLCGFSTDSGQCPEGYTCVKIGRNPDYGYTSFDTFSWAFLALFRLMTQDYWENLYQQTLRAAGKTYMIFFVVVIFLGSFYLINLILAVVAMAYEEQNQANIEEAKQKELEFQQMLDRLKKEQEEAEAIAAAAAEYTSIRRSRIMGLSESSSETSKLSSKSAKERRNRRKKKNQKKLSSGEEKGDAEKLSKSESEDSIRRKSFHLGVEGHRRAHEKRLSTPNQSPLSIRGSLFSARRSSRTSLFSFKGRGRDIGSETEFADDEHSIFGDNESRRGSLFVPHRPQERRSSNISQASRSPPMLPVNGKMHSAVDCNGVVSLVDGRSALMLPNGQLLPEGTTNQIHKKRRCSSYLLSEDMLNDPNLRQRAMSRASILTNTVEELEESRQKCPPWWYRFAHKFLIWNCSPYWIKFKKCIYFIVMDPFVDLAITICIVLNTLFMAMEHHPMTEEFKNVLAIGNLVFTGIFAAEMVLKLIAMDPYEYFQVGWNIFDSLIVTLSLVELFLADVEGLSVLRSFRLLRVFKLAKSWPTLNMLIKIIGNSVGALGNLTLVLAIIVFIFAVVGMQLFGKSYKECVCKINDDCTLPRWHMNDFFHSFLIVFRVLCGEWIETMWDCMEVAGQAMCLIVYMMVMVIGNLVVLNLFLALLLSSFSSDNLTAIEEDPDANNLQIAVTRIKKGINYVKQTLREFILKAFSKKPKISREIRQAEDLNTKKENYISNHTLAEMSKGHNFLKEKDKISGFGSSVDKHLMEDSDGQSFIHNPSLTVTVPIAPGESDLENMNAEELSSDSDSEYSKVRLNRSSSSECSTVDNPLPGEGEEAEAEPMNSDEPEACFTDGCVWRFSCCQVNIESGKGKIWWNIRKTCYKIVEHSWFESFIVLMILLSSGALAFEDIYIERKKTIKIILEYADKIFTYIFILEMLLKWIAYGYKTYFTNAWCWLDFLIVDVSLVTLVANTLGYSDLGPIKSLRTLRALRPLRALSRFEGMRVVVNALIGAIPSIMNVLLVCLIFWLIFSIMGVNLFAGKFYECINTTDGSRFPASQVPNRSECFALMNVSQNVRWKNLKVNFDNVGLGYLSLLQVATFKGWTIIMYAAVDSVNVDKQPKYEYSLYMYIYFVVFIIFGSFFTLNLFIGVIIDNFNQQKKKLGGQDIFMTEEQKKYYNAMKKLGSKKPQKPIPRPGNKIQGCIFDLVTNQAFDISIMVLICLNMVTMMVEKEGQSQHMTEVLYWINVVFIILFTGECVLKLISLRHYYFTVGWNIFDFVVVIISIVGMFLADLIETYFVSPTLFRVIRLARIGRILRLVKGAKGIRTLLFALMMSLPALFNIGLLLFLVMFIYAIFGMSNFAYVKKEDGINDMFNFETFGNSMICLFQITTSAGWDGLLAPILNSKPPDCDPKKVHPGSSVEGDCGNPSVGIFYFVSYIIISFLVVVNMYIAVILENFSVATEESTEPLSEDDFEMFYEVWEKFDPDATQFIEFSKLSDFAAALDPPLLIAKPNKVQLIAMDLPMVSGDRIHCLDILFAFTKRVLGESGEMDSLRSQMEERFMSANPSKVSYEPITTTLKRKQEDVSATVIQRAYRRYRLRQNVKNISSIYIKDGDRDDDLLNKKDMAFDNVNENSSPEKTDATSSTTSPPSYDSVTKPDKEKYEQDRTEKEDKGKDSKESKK
Procedure: Cells Manual Electrophysiology: The hNav1.7 expressing HEK-293 cells are plated on 35 mm culture dishes pre-coated with poly-D-lysine in standard DMEM culture media (Mediatech, Inc., Herndon, Va.) and incubated in a 5% CO2 incubator at 37° C. Cultured cells are used approximately 12-48 h after plating.
The hNav1.7 expressing HEK-293 cells are plated on tissue culture flasks in standard DMEM culture media (Mediatech, Inc.) and incubated in a 5% CO2 incubator at 37° C. Cultured cells are used approximately 12-48 hours after plating.
On the day of experimentation, the 35 mm dish is placed on the stage of an inverted microscope equipped with a perfusion system that continuously perfuses the culture dish with fresh recording media. A gravity driven superfusion system is used to apply test solutions directly to the cell under evaluation. This “shooter” system consists of an array of glass pipette glass connected to a motorized horizontal translator. The outlet of the shooter is positioned approximately 100 μm from the cell of interest.
Gigaseals are formed and the whole-cell configuration is established in voltage clamp mode, and membrane currents generated by hNav1.7 channels are recorded. […] Signals are sampled at 50 kHz and low pass filtered at 3 kHz.
Gigaseals are formed and the whole-cell configuration is established in voltage clamp mode, and membrane currents generated by hNav1.7 are recorded. […]
After a stable baseline is established, the test compound is applied and block of the current elicited by the test pulse assessed. […] An estimate of the Ki is calculated as follows: Ki=[drug]*{FR/(1−FR)}, Eq. 1 where [drug] is the concentration of a drug, and FR=I(after drug)/I(control), Eq. 2
where I is the peak current amplitude. If multiple concentrations were used, Ki is determined from the fit of a logistic equation to FRs plotted against corresponding drug concentrations. […]
The compound testing protocol is a series of 10 ms depolarizations from the Vh1 (determined from the SSIN) to the Vt (determined from the I-V protocol) repeated every 10-15 seconds. […]

Sequence of human Nav1.7 (Q15858 with tags, fused parts or gaps limits assumed): as the sequence (Q15858 other isoform, or with tags, fused parts or gaps) above

Row | SMILES | IC50 [1] [µM] | Ki [2] [µM] | IC50 ([1]; recombinant human Nav1.7 in HEK293, veratridine and scorpion venom agonists) [µM]
1 | Cn1ncc2c(Oc3ccc(-c4cc([C@H](O)CO)cc(C(N)=O)n4)cc3)ccc(F)c21 [Compound 39, (S)-4-(1,2-dihydroxyethyl)-6-(4-((7-fluoro-1-methyl-1H-indazol-4-yl)oxy)phenyl)picolinamide] | 0.797 ± 0.051 | 0.47 ± 0.046 | 
2 | Cn1ncc2c(Oc3ccc(-c4cccc(C(N)=O)n4)cc3)ccc(Cl)c21 [Compound 22, 6-(4-((7-chloro-1-methyl-1H-indazol-4-yl)oxy)phenyl)picolinamide] | 0.53 ± 0.034 |  | 
3 | Cn1ncc2c(Oc3ccc(-c4cc([C@H](O)CO)cc(C(N)=O)n4)cc3)ccc(Cl)c21 [Compound 38, (S)-6-(4-((7-chloro-1-methyl-1H-indazol-4-yl)oxy)phenyl)-4-(1,2-dihydroxyethyl)picolinamide] | 0.45 ± 0.026 |  | 
4 | Cn1ncc2c(Oc3cc(F)c(S(=O)(=O)Nc4nncs4)cc3Cl)ccc(Cl)c21 [Compound 41, 5-chloro-4-((7-chloro-1-methyl-1H-indazol-4-yl)oxy)-2-fluoro-N-(1,3,4-thiadiazol-2-yl)benzenesulfonamide] |  |  | > 20
5 | Cn1ncc2c(Oc3ccc(-c4nc(C(N)=O)cc([C@H](O)CO)n4)cc3)ccc(Cl)c21 [Compound 34, (S)-2-(4-((7-chloro-1-methyl-1H-indazol-4-yl)oxy)phenyl)-6-(1,2-dihydroxyethyl)pyrimidine-4-carboxamide] | 0.157 ± 0.023 | 0.12 ± 0.027 | 
6 | Cn1ncc2c(Oc3ccc(-c4nc(N[C@H]5CCNC5=O)cc(C(N)=O)n4)cc3)ccc(Cl)c21 [Compound 20, (S)-2-(4-((7-chloro-1-methyl-1H-indazol-4-yl)oxy)phenyl)-6-((2-oxopyrrolidin-3-yl)amino)pyrimidine-4-carboxamide] | 0.405 ± 0.06 |  | 
7 | Cn1ncc2c(Oc3ccc(S(=O)(=O)Nc4nncs4)cc3)ccc(Cl)c21 [Compound 42, 4-((7-chloro-1-methyl-1H-indazol-4-yl)oxy)-N-(1,3,4-thiadiazol-2-yl)benzenesulfonamide] | > 20 | 9.01 ± 4.76 | 
8 | Cn1ncc2c(Oc3ccc(-c4cc([C@@H](O)CO)cc(C(N)=O)n4)cc3)ccc(F)c21 [Compound 40, (R)-4-(1,2-dihydroxyethyl)-6-(4-((7-fluoro-1-methyl-1H-indazol-4-yl)oxy)phenyl)picolinamide] | 0.596 ± 0.076 |  | 
